Measured values: EP2669276A1 (Université de Strasbourg, priority 2012, dated 2013)
“And” between values parts separate entries of the source, which are not always exact repeats. Equal values may be shown once. Read-outs that look alike come from different tables or passages of the source.

Experiments:
hNPFF1 = target: T1, hNPFF1 (Homo sapiens, UniProt Q9GZQ6); assay: Receptor binding assay with [3H]-FFRFamide on CHO cell membranes expressing SF-hNPFFR1; conditions: for Ki / inhibition at 0.5 µM / inhibition at 5 µM: [3H]-FFRF-NH2 radioligand, mean of at least two experiments; for Ki: read-out: Ki NPFF1
T1 construct: The cDNA encoding the full-length human NPFFR1 and human NPFFR2; expressed in transfected cells
T1 sequence (Q9GZQ6 whole entry): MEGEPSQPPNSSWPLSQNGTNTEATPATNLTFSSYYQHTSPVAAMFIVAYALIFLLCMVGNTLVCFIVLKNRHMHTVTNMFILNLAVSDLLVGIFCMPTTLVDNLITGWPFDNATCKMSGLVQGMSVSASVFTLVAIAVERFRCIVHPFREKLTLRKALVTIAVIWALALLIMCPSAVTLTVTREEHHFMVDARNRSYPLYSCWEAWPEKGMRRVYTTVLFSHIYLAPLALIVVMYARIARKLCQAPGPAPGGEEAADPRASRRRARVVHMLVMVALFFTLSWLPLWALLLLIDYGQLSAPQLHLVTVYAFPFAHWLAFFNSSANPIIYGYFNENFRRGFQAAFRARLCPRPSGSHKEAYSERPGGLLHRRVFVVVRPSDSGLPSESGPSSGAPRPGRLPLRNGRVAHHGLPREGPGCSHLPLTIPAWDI
Description: (§1) The cDNA encoding the full-length human NPFFR1 and human NPFFR2 were subcloned into the pcDNA3 expression vector (Invitrogen, Cergy Pontoise, France) using standard molecular biology methods. A sequence encoding a signal sequence and a Flag epitope was fused to the 5' coding sequence of both hNPFFR1 and hNPFFR2 cDNA according to (Guan et al., 1992) resulting in a SF-hNPFFR1 and SF-hNPFFR2 constructs. These contructs were stably transfected into CHO cells.
(§2) Membranes from CHO cells stably expressing SF-hNPFFR1 or SF-hNPFFR2 were prepared as described (Becker et al., 1999). SF-hNPFFR1 or SF-hNPFFR2 membranes (10µg) were incubated for 30 min at 25 °C in a final volume of 0.5 ml containing 50 mM HEPES pH 7.4, 1 mM CaCl2, 1 mM MgCl2, 0.1% bovine serum albumin, 10 nM and 3 nM [^3H]-FFRFamide (CEA, Paris; specific activity, 13,6 Ci/mmol) for […], respectively and the ligands to be tested. Non-specific binding was determined in presence of 1 µM neuropeptide FF for SF-hNPFFR2 and 1 µM neuropeptide VF for SF -hNPFFR1. Typical total and nonspecific binding were 1200 and 200 dpm, respectively for SF-hNPFFR1 and SF-hNPFFR2. Incubation mixtures were rapidly filtered and washed with 50 mM HEPES pH 7.4, 1 mM CaCl2, 1 mM MgCl2, on 96 wells GF/B unifilter (Perkin Elmer). Unifilter plates where then dryied for 1hr at 65°C. Bound radioactivity was determined by scintillation counting with 30 µl of scintillation cocktail (O-scint, Perkin Elmer) per well on a Topcount scintillation apparatus (Perkin Elmer).

[1] = test system: Fentanyl-induced hyperalgesia followed by carrageenan injection in rats; assay: Fentanyl-induced hyperalgesia followed by carrageenan injection in rats; assay type: in vivo; conditions: 0.5 mg/kg s.c. 30 min before fentanyl at D0, carrageenan at D13, P < 0.001 Newman-Keuls test
hNPFFR1 [2] = target: T2, hNPFFR1 (Homo sapiens, UniProt Q9GZQ6); assay: cAMP measurement (forskolin-stimulated cAMP accumulation) in CHO cells expressing SF-hNPFFR1; assay type: cell-based
T2 construct: The cDNA encoding the full-length human NPFFR1 and human NPFFR2; expressed in transfected cells
T2 sequence (Q9GZQ6 whole entry): as above
Description: Functional coupling of SF-hNPFFR1 and SF-hNPFFR2 to adenylyl cyclase was assessed by measuring the inhibitory effects of agonist/antagonist and related compounds on forskolin-stimulated cAMP accumulation in CHO cells stably expressing both receptors as previously described (Gicquiaux et al., 2001) with minor modifications. Briefly, 80% confluent CHO cells expressing SF-hNPFFR1 or SF-hNPFFR2 were harvested and seeded in 96-well plates at an initial density of 10,000 cells per well. After 1-2 days of culture (90% confluency), cells were washed with 0.2 ml of PBS (in mM: 137 NaCl, 2.7 KCl, 0.9 CaCl2, 0.5 MgCl2, 6.5 Na2HPO4, 1.5 KH2PO4, pH 7.2), and then incubated at 37°C for 10 min with 0.2 ml assay buffer (in mM: 150 NaCl, 5 KCl, 2.5 CaCl2, 1.2 KH2PO4, 1.2 MgSO4, 25 NaHCO3, 10 HEPES, 10 mg/ml BSA, pH 7.4). […] The reaction was stopped by addition of 0.04 ml volume ice-cold 0.5 M HCl and cells were frozen (-80°C 1 hour) disrupted by sonication and suspensions were centrifuged at 2,000 × g for 15 min. The resulting supernatants were stored at -20°C until determination of cAMP by radioimmunoassay as described (Cailla et al., 1973). For antagonist evaluation, dose response curves of agonists (NPVF and NPFF for hNPFFR1 and hNPFFR2, respectively) were performed in the presence of fixed concentrations of antagonist. […]

[3] = test system: Fentanyl-induced hyperalgesia in rats; assay: Fentanyl-induced hyperalgesia in rats (paw pressure vocalization test); assay type: in vivo; conditions: for fentanyl-induced hyperalgesia / development of fentanyl-induced hyperalgesia: rats, 30 min before fentanyl; for fentanyl-induced hyperalgesia: P < 0.001, Newman-Keuls test
hNPFFR1 [4] = target: T2, hNPFFR1; assay: [35S]GTPγS binding measurement on SF-hNPFFR1 membranes; assay type: biochemical; conditions: tested alone, up to 50 µM
Description: For [^35S]GTPγS binding experiments, SF-hNPFFR1 or SF-hNPFFR2 membrane proteins (5 µg) were incubated for 45 min at 30 °C in a final volume of 0.5 ml containing 20 mM HEPES pH 7.4, 100 mM NaCl, 3 mM MgCl2, 10 µM GDP, 10 µg/ml Saponin, 0.1 nM [^35S]GTPγS and ligands. Non-specific binding was determined in the presence of 10 µM GTPγS. Incubation mixtures were rapidly filtered and washed with 10 mM HEPES pH 7.4, 0,5 M NaCl, 1,5 mM MgCl2, on 96 wells GF/B unifilter (Perkin Elmer). Unifilter plates where then dryied for 1hr at 65°C. Bound radioactivity was determined by scintillation counting with 30 µl of scintillation cocktail (O-scint, Perkin Elmer) per well on a Topcount scintillation apparatus (Perkin Elmer).

hNPFF2 = target: T3, hNPFF2 (Homo sapiens, UniProt Q9Y5X5); assay: Receptor binding assay with [3H]-FFRFamide on CHO cell membranes expressing SF-hNPFFR2; conditions: for Ki / inhibition at 0.5 µM / inhibition at 5 µM: [3H]-FFRF-NH2 radioligand; for Ki: read-out: Ki NPFF2
T3 construct: The cDNA encoding the full-length human NPFFR1 and human NPFFR2; expressed in transfected cells
T3 sequence (Q9Y5X5 whole entry): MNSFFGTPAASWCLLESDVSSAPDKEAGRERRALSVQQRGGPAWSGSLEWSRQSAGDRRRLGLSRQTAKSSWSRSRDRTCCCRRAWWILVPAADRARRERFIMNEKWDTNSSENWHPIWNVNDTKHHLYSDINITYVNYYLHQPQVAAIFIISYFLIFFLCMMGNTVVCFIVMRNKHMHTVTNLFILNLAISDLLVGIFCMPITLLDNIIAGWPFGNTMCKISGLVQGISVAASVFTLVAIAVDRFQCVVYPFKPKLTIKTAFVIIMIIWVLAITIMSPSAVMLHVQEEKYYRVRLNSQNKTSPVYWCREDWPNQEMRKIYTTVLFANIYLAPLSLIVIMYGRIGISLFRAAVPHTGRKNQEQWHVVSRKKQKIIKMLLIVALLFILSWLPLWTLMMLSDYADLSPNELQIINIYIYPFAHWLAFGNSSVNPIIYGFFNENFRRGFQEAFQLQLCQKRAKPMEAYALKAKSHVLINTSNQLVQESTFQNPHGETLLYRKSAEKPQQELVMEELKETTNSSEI
Description: as §1, §2

[5] = test system: hyperalgesia induced by administration of opiate analgesics; conditions: rat, in vivo; cited from earlier work
hNPFFR2 = target: T4, hNPFFR2 (Homo sapiens, UniProt Q9Y5X5); assay: cAMP measurement (forskolin-stimulated cAMP accumulation) in CHO cells expressing SF-hNPFFR2; assay type: cell-based; conditions: antagonism of NPFF, Schild analysis; S.E.M. below 15%
T4 construct: The cDNA encoding the full-length human NPFFR1 and human NPFFR2; expressed in transfected cells
T4 sequence (Q9Y5X5 whole entry): as above
Description: (§3) Functional coupling of SF-hNPFFR1 and SF-hNPFFR2 to adenylyl cyclase was assessed by measuring the inhibitory effects of agonist/antagonist and related compounds on forskolin-stimulated cAMP accumulation in CHO cells stably expressing both receptors as previously described (Gicquiaux et al., 2001) with minor modifications. Briefly, 80% confluent CHO cells expressing SF-hNPFFR1 or SF-hNPFFR2 were harvested and seeded in 96-well plates at an initial density of 10,000 cells per well. After 1-2 days of culture (90% confluency), cells were washed with 0.2 ml of PBS (in mM: 137 NaCl, 2.7 KCl, 0.9 CaCl2, 0.5 MgCl2, 6.5 Na2HPO4, 1.5 KH2PO4, pH 7.2), and then incubated at 37°C for 10 min with 0.2 ml assay buffer (in mM: 150 NaCl, 5 KCl, 2.5 CaCl2, 1.2 KH2PO4, 1.2 MgSO4, 25 NaHCO3, 10 HEPES, 10 mg/ml BSA, pH 7.4). After removal of buffer, 0.06 ml of fresh buffer containing 1 mM 3-isobutyl-1-methyl-xanthine (IBMX) was added for 10 min and cells were exposed to 10 µM forskolin without and with compounds (10^-10-10^-5 M) for 10 min at 37 °C in a final volume of 0.1 ml. The reaction was stopped by addition of 0.04 ml volume ice-cold 0.5 M HCl and cells were frozen (-80°C 1 hour) disrupted by sonication and suspensions were centrifuged at 2,000 × g for 15 min. The resulting supernatants were stored at -20°C until determination of cAMP by radioimmunoassay as described (Cailla et al., 1973). […]

hNPFFR1 [6] = target: T2, hNPFFR1; assay: cAMP measurement (forskolin-stimulated cAMP accumulation) in CHO cells expressing SF-hNPFFR1; assay type: cell-based; conditions: antagonism of NPVF, Schild analysis; S.E.M. below 15%
Description: as §3

[7] = mean of at least two experiments

Compound	Ki (hNPFF1)	inhibition at 0.5 µM (hNPFF2; [7])	inhibition at 5 µM (hNPFF2; [7])	inhibition at 0.5 µM (hNPFF1)	inhibition at 5 µM (hNPFF1)	further results
O=C(N[C@@H](CCCN1CCCCC1)C(=O)NCCc1ccccc1)c1ccccc1-c1ccccc1 [Compound 26, (2S)-N-(2-phenylethyl)-2-[(2-phenylphenyl)formamido]-5-(piperidin-1-yl)pentanamide]	60 nM and 65 nM					affinity for NPFFR1 (hNPFF1; in words): good affinity; increase in inflammatory hyperalgesia induced by prior fentanyl injection [1]: completely prevented; Kb (hNPFFR1 [2]; read-out: pA2 value for hNPFFR1 (converted)): 977 nM; decrease of forskolin-stimulated cAMP accumulation (hNPFFR1 [2]; tested alone, up to 50 µM): did not decrease; in vivo activity after oral administration ([3]; oral, low dose of 1 mg/kg): highly satisfactory in vivo activity; hyperalgesia induced by administration of fentanyl ([3]; rat, single 0.5 mg/kg dose, i.p.): blocks; fentanyl-induced hyperalgesia ([3]; 0.5 mg/kg subcutaneously): completely abolished; fentanyl-induced hyperalgesia ([3]; 3 mg/kg orally): completely abolished; development of fentanyl-induced hyperalgesia ([3]; orally 0.3, 1 and 3 mg/kg): dose-dependently prevented; development of fentanyl-induced hyperalgesia ([3]; subcutaneously 0.05, 0.1 and 0.5 mg/kg): dose-dependently prevented; stimulation of the binding of [35S]GTPgS (hNPFFR1 [4]): did not stimulate; Ki (hNPFF2; unit µM printed with the value): > 13 µM; affinity for NPFFR2 (hNPFF2; in words): very low affinity
CN(CCC[C@H](NC(=O)c1ccccc1-c1ccccc1)C(=O)NCCc1ccccc1)C1CCN(Cc2ccccc2)CC1 [Compound 38, (2S)-5-[(1-benzylpiperidin-4-yl)(methyl)amino]-N-(2-phenylethyl)-2-[(2-phenylphenyl)formamido]pentanamide]	85 ± 20 nM					Ki (hNPFF2; [7]): 0.04 ± 0.023 µM
O=C(N[C@@H](CCCN1CCN(C(=O)c2ccccc2)CC1)C(=O)NCCc1ccccc1)c1ccccc1-c1ccccc1 [Compound 39, (2S)-5-(4-benzoylpiperazin-1-yl)-N-(2-phenylethyl)-2-[(2-phenylphenyl)formamido]pentanamide]	187 ± 9 nM	0%	17%			
O=C(N[C@@H](CCCN1CCC(Cc2ccccc2)CC1)C(=O)NCCc1ccccc1)c1ccccc1 [Compound 40, (2S)-5-(4-benzylpiperidin-1-yl)-N-(2-phenylethyl)-2-(phenylformamido)pentanamide]		5 ± 3%	19 ± 1%	19 ± 3%	32 ± 1%	
O=C(N[C@@H](CCCN1CCC(Cc2ccccc2)CC1)C(=O)NCCc1ccccc1)c1ccccc1Cl [Compound 41, (2S)-5-(4-benzylpiperidin-1-yl)-2-[(2-chlorophenyl)formamido]-N-(2-phenylethyl)pentanamide]		0%	41 ± 3%	0%	54 ± 3%	
O=C(N[C@@H](CCCN1CCC(Cc2ccccc2)CC1)C(=O)NCCc1ccccc1)c1ccc2ccccc2n1 [Compound 42, (2S)-5-(4-benzylpiperidin-1-yl)-N-(2-phenylethyl)-2-(quinolin-2-ylformamido)pentanamide]		4 ± 10%	47%	11 ± 15%	72 ± 11%	
O=C(N[C@@H](CCCN1CCC(Cc2ccccc2)CC1)C(=O)NCCc1ccccc1)c1cccc(Cl)c1 [Compound 43, (2S)-5-(4-benzylpiperidin-1-yl)-2-[(3-chlorophenyl)formamido]-N-(2-phenylethyl)pentanamide]	441 ± 80 nM					Ki (hNPFF2; [7]): 0.147 ± 0.002 µM
O=C(NCCc1ccccc1)[C@H](CCCN1CCC(Cc2ccccc2)CC1)NC(=O)C12CC3CC(CC(C3)C1)C2 [Compound 44, (2S)-2-(adamantan-1-ylformamido)-5-(4-benzylpiperidin-1-yl)-N-(2-phenylethyl)pentanamide]	603 ± 139 nM					Ki (hNPFF2; [7]): 0.188 ± 0.006 µM
O=C(C=C(c1ccccc1)c1ccccc1)N[C@@H](CCCN1CCC(Cc2ccccc2)CC1)C(=O)NCCc1ccccc1 [Compound 45, (2S)-5-(4-benzylpiperidin-1-yl)-2-(3,3-diphenylprop-2-enamido)-N-(2-phenylethyl)pentanamide]		23 ± 25%	25 ± 19%	10 ± 18%	12 ± 2%	
O=C(CCCNC(=O)c1ccccc1)N[C@@H](CCCN1CCC(Cc2ccccc2)CC1)C(=O)NCCc1ccccc1 [Compound 46, (2S)-5-(4-benzylpiperidin-1-yl)-N-(2-phenylethyl)-2-[4-(phenylformamido)butanamido]pentanamide]						inhibition at 0.7 µM (hNPFF1; 0.7 µM (footnote e)): 35%; inhibition at 7 µM (hNPFF1; 7 µM (footnote d)): 59%; inhibition at 0.7 µM (hNPFF2; 0.7 µM (footnote e)): 4%; inhibition at 7 µM (hNPFF2; 7 µM (footnote d)): 39%
N^α-adamantan-1-yl-L-Arg-L-Phe-NH2 acetate [RF9]						activity on hyperalgesia induced by repeated administration of opiate analgesics [5]: antihyperalgesic activity; pA2 for hNPFFR2 (hNPFFR2): 6,65; pA2 value for hNPFFR1 (hNPFFR1 [6]): 6.47
